Data reported in US10543162B2 (Rutgers, The State University of New Jersey, priority 2015, dated 2020).

What was measured:
3T3 mouse fibroblasts = assay: Cytotoxicity / cytocompatibility (MTS cell viability); type: cell-based; settings: 1000 μM, after 24 h
Method: In vitro cytocompatibility studies were performed by culturing 3T3 mouse fibroblasts in cell media (Dulbecco's Modified Eagle Medium supplemented with 10% Fetal Bovine Serum, 1% Penicillin Streptomycin, and 1% L-glutamate) containing the KA poly(carbonate-esters). Polymers (5a-5c, 6a-6e) and Dienols (4a-4e) were first sterilized under UV at λ=254 nm for 900 s (Spectronics Corporation, Westbury, N.Y.) and subsequently dissolved in DMSO to acquire a stock solution. The stock solution was then serial diluted with cell media. Cells were seeded in a 96-well plate at 2,000 cells/well in […]. Following incubation for 1 h, polymer-containing media in 1% DMSO, at concentrations capable of inhibiting tyrosinase (0.1 mg/mL, 0.01 mg/mL and 0.001 mg/mL) were added to allocated wells in a 96-well plate and incubated at 37° C. DMSO (1%) in cell media was used as a negative control.
Cell viability was determined using CellTiter 96® Aqueous One Solution Cell Proliferation Assay. After 24 h, 48 h, and 72 h incubation with polymers, 20 μL of (3-(4,5-dimethylthiazol-2-yl)-5-(3-carboxymethoxyphenyl)-2-(4-sulfophenyl)-2H-tetrazolium) (MTS) reagent was added to each well and further incubated for 4 h at 37° C. The absorbance was then recorded with a microplate reader (Coulter, Boulevard Brea, Calif.) at 490 nm. […]

[1] = Dienol (4) Log P determination by reverse-phase HPLC; type: physicochemical; settings: for chromatographic logP: from HPLC log kw via calibration curve of reference samples' published Log Po,w, read-out: Calculated Log P Values; for Calculated kw: retention factor at 100% buffer, extrapolated from HPLC retention factors at MeOH:buffer 45:55→60:40, 25° C.
Method: Log P, partitioning coefficient of respective compounds between a hydrophilic (aqueous) and lipophilic (oil) phase, studies were conducted to investigate the relative hydrophobicity of Dienols (4). Using HPLC equipped with an XTerra reverse-phase C18 (RP18) 3.5 μm 4.6×150 mm column (Waters, Milford, Mass.) and Waters 2695 Separations Module, sample retention times were analyzed via a Waters 2487 Dual λ Absorbance Detector monitoring 254 and 270 nm. Mobile phases of HPLC grade methanol (MeOH) and 50 mM KH2PO4 with 1% formic acid in HPLC grade water were utilized at varying ratios (45:55→60:40) and run at 1 mL/min flow rate and 25° C. (Ayouni, et al., Chromatographia 2005, 62, (5-6), 251-255). All samples were first dissolved in DMSO and subsequently diluted with phosphate-buffer saline (PBS) to acquire 1% DMSO solutions and filtered through 0.22 μm PVDF syringe filters prior to autoinjection (20 μL).
Dienol retention factor (k) for each methanol concentration was calculated according to equation one, where tR and t0 are the retention times of the Dienols and dead time, as determined by the injection of sodium nitrate (Ayouni, et al., Chromatographia 2005, 62, (5-6), 251-255), respectfully. From the obtained retention factors the kw, retention factor at 100% buffer, was extrapolated. Hydroxybenzyl alcohol, benzyl alcohol, 2-phenylethanol, methylparaben, anisole, toluene, and thymol were used as reference samples and their retention times acquired. Using reference samples' published Log Po,w values (OECD Nuclear Energy Agency.; Organisation for Economic Co-operation and Development. In OECD guidelines for the testing of chemicals 117, Organisation for Economic Co-Operation and Development: Paris, 2004), a calibration curve was generated in which Log Po,w values were plotted on the y-axis whereas log kw values, obtained from the same method as above, were plotted on the x-axis (Ouimet, et al., Biomacromolecules 2015, 16, 2911-2919). Dienol Log P values were then calculated from the curve using equation 2. kw=(tR−t0)/t0 Equation 1 Log P=slope×log kw+y−intercept Equation 2
Thus, Dienol Log P values were extrapolated from an HPLC method to determine lipophilicity (OECD Nuclear Energy Agency.; Organisation for Economic Co-operation and Development. In OECD guidelines for the testing of chemicals 117, Organisation for Economic Co-Operation and Development: Paris, 2004). Retention factors (k) were calculated according to equation 1 for each concentration of MeOH and kw values extrapolated based off the retention times (Table 1).

SMILES	cytocompatibility (3T3 mouse fibroblasts)	chromatographic logP [1]	Calculated kw [1]
O=c1cc(CO)occ1O [Kojic Acid, 5-Hydroxy-2-(hydroxymethyl)-4-pyrone]	slightly cytotoxic	–	–
O=C(CCCCCCCC(=O)OCc1cc(=O)c(O)co1)OCc1cc(=O)c(O)co1 [Compound 4c, KA (Azelaic) Dienol]	–	2.59	16.0
O=C(CCCCCCCCC(=O)OCc1cc(=O)c(O)co1)OCc1cc(=O)c(O)co1 [Compound 4d, KA (sebacic) Dienol]	–	3.1	31.6
O=C(COCCOCCOCC(=O)OCc1cc(=O)c(O)co1)OCc1cc(=O)c(O)co1 [Compound 4e, KA (Tetraglycolic) Dienol]	–	0.235	0.688
O=C(CCC(=O)OCc1cc(=O)c(O)co1)OCc1cc(=O)c(O)co1 [Compound 4a, KA (succinic) Dienol]	–	0.353	0.806
O=C(CCCCC(=O)OCc1cc(=O)c(O)co1)OCc1cc(=O)c(O)co1 [Compound 4b, KA (adipic) Dienol]	–	1.17	2.40
